Reference: PMC4004541, “PEG-Like Nanoprobes: Multimodal, Pharmacokinetically and Optically Tunable Nanomaterials” (PLoS ONE, 2014)

Test system: mCherry expressing HT-29 tumor
Experiment: Intravital two photon microscopy of mCherry expressing HT-29 tumor in dorsal skinfold chamber
Format: in vivo, nude mice
Conditions: 10 nmoles IV
Text: A feature of PN design is that the fluorochrome can be selected to optimize optical properties for different applications. To image the vascular pharmacokinetic phase with two photon microscopy, PN(497)10.0 was used because its fluorescein is readily excited in the two photon mode. […] To further examine the vascular and interstitial phases, a dorsal skinfold chamber was used for the intravital, two photon microscopy of a mCherry expressing HT-29 tumor ( Figure 5B ).
Dorsal skinfold chamber (DSFC) tumors were grown in female nude mice (nu/nu; 25–30 g; 6–8 weeks old) with modifications from previously published techniques, [35]. 10^6 mCherry-HT-29 tumor cells in matrixgel (BD) were subcutaneously injected in the back of mice ∼1.5 cm left of the dorsal midline approximately halfway from the neck to the tail base. […] On days 2, 3, and 4 days after tumor DSFC implantation, when tumors were typically 3 mm in diameter, image stacks of tumor tissue were recorded under general anesthesia with Ketamine and Xylazine. […]
Multiphoton excitation was obtained through DeepSee and MaiTai Ti:sapphire lasers (Newport/Spectra-Physics) tuned to 920 and 1000 nm to excite all fluorescent probes used. […] Emitted fluorescence was detected through 460/50, 525/50, 595/50, 660/40 band-pass filters and non-descanned detectors to generate four-color images. […]

## (DOTA)Lys(PEG 30 kDa)-Cys(Fl) [PN(497)10.0, PEG-like Nanoprobe: 30 kDa PEG, fluorescein, DOTA peptide]
20 h post-injection
  Localisation by intravital microscopy, interstitial phase: seen in the interstitium at the tumor periphery
Ten minutes post-injection
  Localisation by intravital microscopy, vascular phase: confined to the vasculature
